# What was measured:
# Format in all cases: functional
# Enterococcus faecalis = assay: In vitro antibacterial activity against Enterococcus faecalis C6291 (E.f.1).
# Streptococcus pyogenes [1] = assay: In vitro antibacterial activity against Streptococcus pyogenes C6003 (S.p.2).
# Staphylococcus aureus [2] = assay: In vitro antibacterial activity against ciprofloxacin-resistant Staphylococcus aureus (CRSA) C6043.
# Streptococcus pyogenes [3] = assay: In vitro antibacterial activity against Streptococcus pyogenes ATCC 8668 (S.p.1).
# Staphylococcus aureus [4] = assay: In vitro antibacterial activity against methicillin-susceptible Staphylococcus aureus (MSSA) C2214.
# Enterococcus faecium [5] = assay: In vitro antibacterial activity against Enterococcus faecium C6301 (E.f.2).
# [6] = system: Staphylococcus epidermidis; assay: In vitro antibacterial activity against Staphylococcus epidermis (S.e.1) […].
# Enterococcus faecium [7] = assay: In vitro antibacterial activity against vancomycin-resistant Enterococcus faecium C6487 (VRE).
# [8] = system: Staphylococcus epidermidis; assay: In vitro antibacterial activity against Staphylococcus epidermis (S.e.2) C2235.
# Staphylococcus aureus [9] = assay: In vitro antibacterial activity against Staphylococcus aureus (S. a.) ATCC 29213.
# Staphylococcus aureus [10] = assay: In vitro antibacterial activity against methicillin-resistant Staphylococcus aureus (MRSA) C6068.
SMILES,MIC (Enterococcus faecalis) [µg/mL],MIC (Streptococcus pyogenes [1]) [µg/mL],MIC (Staphylococcus aureus [2]) [µg/mL],MIC (Streptococcus pyogenes [3]) [µg/mL],MIC (Staphylococcus aureus [4]) [µg/mL],MIC (Enterococcus faecium [5]) [µg/mL],MIC [6] [µg/mL],MIC (Enterococcus faecium [7]) [µg/mL],MIC [8] [µg/mL],MIC (Staphylococcus aureus [9]) [µg/mL],MIC (Staphylococcus aureus [10]) [µg/mL]
CC(=O)NC[C@H]1CN(c2ccc(N3CCN(C(=O)c4cc(C)no4)CC3)c(F)c2)C(=O)O1,4,0.5,4,0.5,8,2,0.5,2,1,4,2
CC(=O)NC[C@H]1CN(c2ccc(N3CCN(C(=O)c4cc(C(F)(F)F)no4)CC3)c(F)c2)C(=O)O1,4,1,4,1,4,4,2,4,2,4,2
CC(=O)NC[C@H]1CN(c2ccc(N3CCN(Cc4cc(-c5ccc(F)cc5)no4)CC3)c(F)c2)C(=O)O1,4,2,8,2,8,4,2,4,4,8,4
COc1cc(C(=O)N2CCN(c3ccc(N4C[C@H](CNC(C)=O)OC4=O)cc3F)CC2)on1,2,0.5,4,0.5,4,2,0.5,2,0.5,4,2
CC(=O)NC[C@H]1CN(c2ccc(N3CCN(C(=O)c4cc(Br)no4)CC3)c(F)c2)C(=O)O1,2,1,2,1,2,4,1,2,2,4,1
CC(=O)NC[C@H]1CN(c2ccc(N3CCN(Cc4cc(-c5ccc(C#N)cc5)no4)CC3)c(F)c2)C(=O)O1,16,2,16,2,16,16,4,8,8,16,8
CC(=O)NC[C@H]1CN(c2ccc(N3CCN(C(=O)c4cc(COC(N)=O)no4)CC3)c(F)c2)C(=O)O1,1,0.5,2,0.5,2,1,0.5,1,0.5,2,1
CC(=O)NC[C@H]1CN(c2ccc(N3CCN(C(=O)c4cc(C#N)no4)CC3)c(F)c2)C(=O)O1,2,0.25,2,0.25,2,1,0.5,1,0.5,2,1
CC(=O)NC[C@H]1CN(c2ccc(N3CCN(C(=O)c4cc(COC(=O)N(C)C)no4)CC3)c(F)c2)C(=O)O1,2,0.5,4,0.5,4,2,1,2,2,4,2
CC(=O)NC[C@H]1CN(c2ccc(N3CCOCC3)c(F)c2)C(=O)O1 [LINEZOLID],,0.5,,0.5,,1,1,2,1,,1
CC(=O)NC[C@H]1CN(c2ccc(N3CCN(C(=O)c4cc(C(=O)O)no4)CC3)c(F)c2)C(=O)O1,> 32,16,,16,> 32,> 32,> 32,,> 32,> 32,
CC(=O)NC[C@H]1CN(c2ccc(N3CCN(C(=O)c4cc(O)no4)CC3)c(F)c2)C(=O)O1,> 32,16,,16,> 32,> 32,> 32,,> 32,> 32,
CC(=O)NC[C@H]1CN(c2ccc(N3CCN(Cc4cc(/C=C/c5ccccc5)no4)CC3)c(F)c2)C(=O)O1,16,2,,2,> 32,8,2,8,16,> 32,32

# — ChEMBL document CHEMBL1131977, “Synthesis and in vitro activity of new oxazolidinone antibacterial agents having substituted isoxazoles” (1999)
